Data set [1] concerns the target T1, Gonadotropin-releasing hormone receptor (Homo sapiens, UniProt P30968).
T1 sequence (P30968 whole entry): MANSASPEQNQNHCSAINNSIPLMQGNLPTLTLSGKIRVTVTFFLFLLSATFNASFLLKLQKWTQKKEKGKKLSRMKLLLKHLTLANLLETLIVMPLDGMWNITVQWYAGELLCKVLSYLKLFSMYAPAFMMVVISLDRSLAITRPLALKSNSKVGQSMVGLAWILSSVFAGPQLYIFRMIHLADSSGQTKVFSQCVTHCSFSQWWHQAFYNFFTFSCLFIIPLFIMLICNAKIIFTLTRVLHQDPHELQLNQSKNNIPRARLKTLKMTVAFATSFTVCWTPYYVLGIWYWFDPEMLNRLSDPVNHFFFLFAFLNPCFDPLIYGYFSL
Kind of data set: Antagonist activity against human GnRH receptor expressed in HEK293 cells co-transfected with pGL4-NFAT promoter AP1-luc assessed as inhibition of 20 nM GnRH-induced NFAT activation pre-incubated for 1 hr before GnRH stimulation and measured after 6 hrs by luciferase reporter gene assay. In kind it is cell-based. For orientation: In a reporter assay the amount or activity of a reporter protein is the signal.

Data set [2] concerns the target T1, Gonadotropin-releasing hormone receptor. Put plainly: Displacement of [125I]D-Trp6-LHRH from human GnRH receptor expressed in CHO-K1 cell membranes incubated for 1 hr by competitive binding assay. In general terms: Displacement assays read how much labelled ligand stays bound in the presence of the test substance.
In another data set the target is CYP3A4 (Homo sapiens, UniProt P08684). Put plainly: Inhibition of human recombinant CYP3A4 expressed in baculosomes at 10 uM incubated for 30 mins using BOMR substrate by fluorescence based assay. In kind it is ADME. Particulars: probe BOMR.
Sequence of CYP3A4 (P08684 whole entry): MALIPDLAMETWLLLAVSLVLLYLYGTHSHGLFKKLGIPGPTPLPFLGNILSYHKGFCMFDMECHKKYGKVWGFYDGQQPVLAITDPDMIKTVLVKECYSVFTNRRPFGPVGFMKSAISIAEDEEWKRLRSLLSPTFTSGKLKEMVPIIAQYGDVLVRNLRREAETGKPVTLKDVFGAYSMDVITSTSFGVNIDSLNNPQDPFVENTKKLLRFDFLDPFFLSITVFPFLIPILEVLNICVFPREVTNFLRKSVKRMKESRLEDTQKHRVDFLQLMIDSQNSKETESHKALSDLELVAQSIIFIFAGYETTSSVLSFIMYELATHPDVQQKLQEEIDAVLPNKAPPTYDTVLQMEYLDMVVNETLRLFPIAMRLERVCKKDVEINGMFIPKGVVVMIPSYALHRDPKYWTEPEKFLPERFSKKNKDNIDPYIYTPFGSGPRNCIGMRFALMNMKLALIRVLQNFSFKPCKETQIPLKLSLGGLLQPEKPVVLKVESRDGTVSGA

The IC50 is the concentration that gives 50% inhibition. For orientation: inhibition means the share of the control response that was lost under treatment.

The structures appear in SMILES notation.

Take `Cc1c(N2CCN(Cc3cccc4ccsc34)CC2)c(=O)n(C[C@H](N)c2ccccc2)c(=O)n1Cc1c(F)cccc1C(F)(F)F`: the values for the IC50 in data set [1] and in data set [2] were 10200 nM and 18.2 nM, respectively.

Turning to `Cc1c(N2CCN(Cc3cccnc3F)CC2)c(=O)n(C[C@H](N)c2ccccc2)c(=O)n1Cc1c(F)cccc1C(F)(F)F`, the results for the IC50 in data set [1] and in data set [2] were 193 nM and 1.07 nM, respectively.

As for `Cc1c(N2CCN(Cc3cncs3)CC2)c(=O)n(C[C@H](N)c2ccccc2)c(=O)n1Cc1c(F)cccc1C(F)(F)F`, the IC50 in data set [1] was found to be 930 nM; in data set [2] it was 8.94 nM.

In the case of `Cc1c(N2CCN(Cc3ccc(=O)[nH]c3)CC2)c(=O)n(C[C@H](N)c2ccccc2)c(=O)n1Cc1c(F)cccc1C(F)(F)F`, the results for the IC50 in data set [1] and in data set [2] were 1090 nM and 28.1 nM, respectively.

Consider `COC(=O)c1cccc(CN2CCN(c3c(C)n(Cc4c(F)cccc4C(F)(F)F)c(=O)n(C[C@H](N)c4ccccc4)c3=O)CC2)c1`, for which the IC50 amounted to 23.3 nM in data set [1] and 0.39 nM in data set [2].

`Cc1c(N2CCN(Cc3cccs3)CC2)c(=O)n(C[C@H](N)c2ccccc2)c(=O)n1Cc1c(F)cccc1C(F)(F)F`: the IC50 in data set [1] is over 1000 nM; in data set [2] it was 1.27 nM.

In the case of `Cc1c(N2CCN(Cc3cccc(C(=O)NCC(=O)O)c3)CC2)c(=O)n(C[C@H](N)c2ccccc2)c(=O)n1Cc1c(F)cccc1C(F)(F)F`, the inhibition at 0.5 h, 10 µM at CYP3A4 was found to be 74%. For the same molecule, the IC50 was over 300 nM in data set [1] and over 10 nM in data set [2].

`Cc1ncccc1CN1CCN(c2c(C)n(Cc3c(F)cccc3C(F)(F)F)c(=O)n(C[C@H](N)c3ccccc3)c2=O)CC1`: the IC50 in data set [1] is 543 nM; in data set [2], 5.11 nM.

Take `CC(=O)c1cccc(CN2CCN(c3c(C)n(Cc4c(F)cccc4C(F)(F)F)c(=O)n(C[C@H](N)c4ccccc4)c3=O)CC2)c1`: the figures for the IC50 in data set [1] and in data set [2] were 16.5 nM and 0.16 nM, respectively.

Take `Cc1c(N2CCN(Cc3ccc(C#N)cc3)CC2)c(=O)n(C[C@H](N)c2ccccc2)c(=O)n1Cc1c(F)cccc1C(F)(F)F`: the IC50 came to 326 nM in data set [1] and 1.16 nM in data set [2].

Consider `Cc1c(N2CCN(Cc3cccc([N+](=O)[O-])c3)CC2)c(=O)n(C[C@H](N)c2ccccc2OCCCC(=O)O)c(=O)n1Cc1c(F)cccc1C(F)(F)F`, for which, at CYP3A4, the inhibition at 0.5 h, 10 µM was 57%. Further, the concentration for half-maximal inhibition (IC50) in data set [1] stood at 26.9 nM; in data set [2], 0.14 nM.

For the molecule `Cc1c(N2CCN(Cc3cccc(OC(F)(F)F)c3)CC2)c(=O)n(C[C@H](N)c2ccccc2)c(=O)n1Cc1c(F)cccc1C(F)(F)F`, the figures for the IC50 in data set [1] and in data set [2] were 250 nM and 1 nM, respectively.

Regarding `Cc1c(N2CCN(Cc3ccco3)CC2)c(=O)n(C[C@H](N)c2ccccc2)c(=O)n1Cc1c(F)cccc1C(F)(F)F`, the IC50 in data set [1] was over 1000 nM; in data set [2], 2.76 nM.

`Cc1c(N2CCN(Cc3nccs3)CC2)c(=O)n(C[C@H](N)c2ccccc2)c(=O)n1Cc1c(F)cccc1C(F)(F)F`: the IC50 in data set [1] worked out at 1660 nM; in data set [2] it was 17.7 nM.

On to `Cc1c(N2CCN(Cc3ccc(C(F)(F)F)o3)CC2)c(=O)n(C[C@H](NCCCS(=O)(=O)O)c2ccccc2)c(=O)n1Cc1c(F)cccc1C(F)(F)F`, for which the inhibition at 0.5 h, 10 µM at CYP3A4 stood at 45%. Besides, the figures for the IC50 in data set [1] and in data set [2] were 122 nM and 1.1 nM, respectively.

Turning to `Cc1c(N2CCN(Cc3cccc(C(N)=O)c3)CC2)c(=O)n(C[C@H](N)c2ccccc2)c(=O)n1Cc1c(F)cccc1C(F)(F)F`, the inhibition at 0.5 h, 10 µM on CYP3A4 came out at 93%. Also, the IC50 in data set [1] is 86.5 nM; in data set [2] it was 1.95 nM.

Consider `Cc1c(N2CCN(Cc3nc4ccccc4s3)CC2)c(=O)n(C[C@H](N)c2ccccc2)c(=O)n1Cc1c(F)cccc1C(F)(F)F`, for which the figures for the IC50 in data set [1] and in data set [2] were 4900 nM and 48 nM, respectively.

As to `Cc1c(N2CCN(Cc3cccc(F)c3F)CC2)c(=O)n(C[C@H](N)c2ccccc2)c(=O)n1Cc1c(F)cccc1C(F)(F)F`, the IC50 in data set [1] was 266 nM; in data set [2], 0.39 nM.

`Cc1c(N2CCN(Cc3ccoc3)CC2)c(=O)n(C[C@H](N)c2ccccc2)c(=O)n1Cc1c(F)cccc1C(F)(F)F`: the IC50 was over 1000 nM in data set [1] and 6.59 nM in data set [2].

Turning to `Cc1c(N2CCN(Cc3cccc4nonc34)CC2)c(=O)n(C[C@H](N)c2ccccc2)c(=O)n1Cc1c(F)cccc1C(F)(F)F`, the IC50 in data set [1] turned out to be 885 nM; in data set [2], 0.6 nM.

Take `Cc1c(N2CCN(Cc3cccc(C(F)(F)F)c3)CC2)c(=O)n(C[C@H](N)c2ccccc2)c(=O)n1Cc1c(F)cccc1C(F)(F)F`: the inhibition at 0.5 h, 10 µM on CYP3A4 amounted to 96%. The figures for the IC50 in data set [1] and in data set [2] were 27.9 nM and 0.33 to 0.52 nM, respectively.

`Cc1c(N2CCN(Cc3ccon3)CC2)c(=O)n(C[C@H](N)c2ccccc2)c(=O)n1Cc1c(F)cccc1C(F)(F)F`: the concentration for half-maximal inhibition (IC50) in data set [1] is over 1000 nM; in data set [2], 14.1 nM.

With `Cc1c(N2CCN(Cc3cccc(C#N)c3)CC2)c(=O)n(C[C@H](N)c2ccccc2)c(=O)n1Cc1c(F)cccc1C(F)(F)F`, the IC50 came to 213 nM in data set [1] and 0.41 nM in data set [2].

Consider `Cc1c(N2CCN(Cc3ccc(Cl)nc3)CC2)c(=O)n(C[C@H](N)c2ccccc2)c(=O)n1Cc1c(F)cccc1C(F)(F)F`, for which the figures for the IC50 in data set [1] and in data set [2] were 554 nM and 3.77 nM, respectively.

`Cc1c(N2CCN(Cc3ccc(C#N)o3)CC2)c(=O)n(C[C@H](N)c2ccccc2)c(=O)n1Cc1c(F)cccc1C(F)(F)F`: the IC50 in data set [1] is 103 nM; in data set [2], 0.17 nM.

As to `Cc1cc(CN2CCN(c3c(C)n(Cc4c(F)cccc4C(F)(F)F)c(=O)n(C[C@H](N)c4ccccc4)c3=O)CC2)c(C(F)(F)F)o1`, the figures for the IC50 in data set [1] and in data set [2] were over 1000 nM and over 100 nM, respectively.

For `COC(=O)c1ccccc1CN1CCN(c2c(C)n(Cc3c(F)cccc3C(F)(F)F)c(=O)n(C[C@H](N)c3ccccc3)c2=O)CC1`, the IC50 in data set [1] was over 10000 nM; in data set [2] it was 24.3 nM.

For the molecule `Cc1c(N2CCN(Cc3cnccn3)CC2)c(=O)n(C[C@H](N)c2ccccc2)c(=O)n1Cc1c(F)cccc1C(F)(F)F`, the IC50 was 2050 nM in data set [1] and 20 nM in data set [2].

Take `COC(=O)c1ccc(CN2CCN(c3c(C)n(Cc4c(F)cccc4C(F)(F)F)c(=O)n(C[C@H](N)c4ccccc4)c3=O)CC2)o1`: the IC50 stood at 64 nM in data set [1] and 0.31 nM in data set [2].

`Cc1c(N2CCN(Cc3cccc([N+](=O)[O-])c3)CC2)c(=O)n(C[C@H](N)c2ccccc2)c(=O)n1Cc1c(F)cccc1F`: the IC50 in data set [1] turned out to be 401 nM; in data set [2], 2.9 nM.

Regarding `Cc1ccc(CN2CCN(c3c(C)n(Cc4c(F)cccc4C(F)(F)F)c(=O)n(C[C@H](N)c4ccccc4)c3=O)CC2)cn1`, the IC50 came to 1690 nM in data set [1] and 14.2 nM in data set [2].

With `Cc1c(N2CCN(Cc3ccc(Cl)o3)CC2)c(=O)n(C[C@H](N)c2ccccc2)c(=O)n1Cc1c(F)cccc1C(F)(F)F`, the figures for the IC50 in data set [1] and in data set [2] were 178 nM and 0.39 nM, respectively.

On to `Cc1cncc(CN2CCN(c3c(C)n(Cc4c(F)cccc4C(F)(F)F)c(=O)n(C[C@H](N)c4ccccc4)c3=O)CC2)c1`, for which the IC50 in data set [1] turned out to be 1180 nM; in data set [2], 7.18 nM.

Take `Cc1c(N2CCN(Cc3cscn3)CC2)c(=O)n(C[C@H](N)c2ccccc2)c(=O)n1Cc1c(F)cccc1C(F)(F)F`: the IC50 came to 2130 nM in data set [1] and 35.6 nM in data set [2].

Regarding `Cc1c(N2CCN(Cc3ccccc3C#N)CC2)c(=O)n(C[C@H](N)c2ccccc2)c(=O)n1Cc1c(F)cccc1C(F)(F)F`, the IC50 is 351 nM in data set [1] and 0.32 nM in data set [2].

Regarding `Cc1c(N2CCN(Cc3cccc(F)c3)CC2)c(=O)n(C[C@H](N)c2ccccc2)c(=O)n1Cc1c(F)cccc1C(F)(F)F`, the IC50 in data set [1] was 321 nM; in data set [2], 1.7 nM.

`Cc1c(N2CCN(Cc3cccnc3)CC2)c(=O)n(C[C@H](N)c2ccccc2)c(=O)n1Cc1c(F)cccc1C(F)(F)F`: the values for the IC50 in data set [1] and in data set [2] were 290 nM and 2 nM, respectively.

As to `CCNC(=O)c1cccc(CN2CCN(c3c(C)n(Cc4c(F)cccc4C(F)(F)F)c(=O)n(C[C@H](N)c4ccccc4)c3=O)CC2)c1`, the IC50 in data set [1] is over 300 nM.

As for `Cc1c(N2CCN(Cc3cocn3)CC2)c(=O)n(C[C@H](N)c2ccccc2)c(=O)n1Cc1c(F)cccc1C(F)(F)F`, the IC50 was over 1000 nM in data set [1] and 7.01 nM in data set [2].

For `Cc1c(N2CCN(Cc3cccc(S(C)(=O)=O)c3)CC2)c(=O)n(C[C@H](N)c2ccccc2)c(=O)n1Cc1c(F)cccc1C(F)(F)F`, the figures for the IC50 in data set [1] and in data set [2] were 214 nM and 0.38 nM, respectively.

For `Cc1c(N2CCN(Cc3cccnc3Cl)CC2)c(=O)n(C[C@H](N)c2ccccc2)c(=O)n1Cc1c(F)cccc1C(F)(F)F`, the values for the IC50 in data set [1] and in data set [2] were 526 nM and 2.57 nM, respectively.

Regarding `Cc1c(N2CCN(Cc3ccc(C(F)(F)F)s3)CC2)c(=O)n(C[C@H](N)c2ccccc2)c(=O)n1Cc1c(F)cccc1C(F)(F)F`, the IC50 in data set [1] stood at 62 nM.

For the molecule `Cc1c(N2CCN(Cc3cccc(-c4ncco4)c3)CC2)c(=O)n(C[C@H](N)c2ccccc2)c(=O)n1Cc1c(F)cccc1C(F)(F)F`, the IC50 in data set [1] is 53 nM.

Consider `Cc1c(N2CCN(Cc3ccccc3F)CC2)c(=O)n(C[C@H](N)c2ccccc2)c(=O)n1Cc1c(F)cccc1C(F)(F)F`, for which the values for the IC50 in data set [1] and in data set [2] were 340 nM and 1 nM, respectively.

Take `Cc1c(N2CCN(Cc3cccc([N+](=O)[O-])c3F)CC2)c(=O)n(C[C@H](N)c2ccccc2)c(=O)n1Cc1c(F)cccc1C(F)(F)F`: the IC50 in data set [1] was found to be 115 nM.

Regarding `Cc1c(N2CCN(Cc3cncc(F)c3)CC2)c(=O)n(C[C@H](N)c2ccccc2)c(=O)n1Cc1c(F)cccc1C(F)(F)F`, the IC50 came out at 1510 nM in data set [1] and 2 nM in data set [2].

These data come from ChEMBL document CHEMBL4428102, “Discovery of an Orally Bioavailable Gonadotropin-Releasing Hormone Receptor Antagonist” (J Med Chem, 2016).
